{"source": "patent US6914045B2", "about": "“Glycopeptide antibiotics” (Wyeth Holdings Corporation, priority 2001, dated 2005)", "assay_in_all_cases": "in vitro antibacterial evaluation, MIC by broth dilution", "type_in_all_cases": "cell-based", "key": {"[1]": {"test_system": "Enterococcus sp.", "details": "broth dilution, 18 hours at 35° C.", "method_in_brief": "(§1)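 Read-out: the lowest concentration at which the test strain fails to grow. Serial dilutions (64-0.06 μg/mL) in Muller-Hinton II […], 5×10^5 CFU/mL inoculum, NCCLS M7-A2 procedure.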"}, "[2]": {"test_system": "Escherichia coli", "details": "18 hours at 35° C.", "method_in_brief": "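Test organisms, which included recent clinical isolates resistant to methicillin, penicillin and/or vancomycin, were inoculated at 5×10^5 CFU/mL into Muller-Hinton II […] containing antibiotic at 64-0.06 μg/mL. Minimum inhibitory concentrations were then read as the lowest level inhibiting growth.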"}, "[3]": {"test_system": "Staphylococcus sp.", "details": "broth dilution, 18 hours at 35° C.", "method_in_brief": "as §1"}, "[4]": {"test_system": "Streptococcus sp.", "details": "broth dilution, 18 hours at 35° C.", "method_in_brief": "as §1"}}, "note": "Numbered stars: 1 amine (or outer) side, 2 acyl side, 3 side chain; on linkers, the order of the positions; unused ones are H or OH. Square brackets hold non-standard residues; d marks the D form. Peptide text beside a SMILES is read from it. * marks the point of attachment. ξ: configuration not given here. X1 = N=C1NCC(C(O)C(N[*:1])C(=O)[*:2])N1C1OC(CO)C(O)C(O)C1O; ξEnduracididine(βξ-OH,4'ξ) = N=C1NCC(C(O)C(N)C(=O)O)N1; ξPhe(4-Cl,βξ-Me) = CC(c1ccc(Cl)cc1)C(N)C(=O)O; X2 = OCC1OC(OC2C(CO)OC(*)C(O)C2O)C(O)C(O)C1O", "data": [{"smiles": "CC(c1ccc(Cl)cc1)C1NC(=O)CNC(=O)C(CO)NC(=O)C(C(O)C2CNC(=N)N2C2OC(CO)C(O)C(O)C2O)NC(=O)C(C(O)C2CNC(=N)N2)NC(=O)C(Cc2ccc(OC3OC(CO)C(OC4OC(CO)C(O)C(O)C4O)C(O)C3O)cc2)NC1=O", "note": "(stereo not drawn) [Example 262a, Cyclo[glycyl-4-chloro-β-methylphenylalanyl-O-(4-O-hexopyranosylhexopyranosyl)tyrosyl-3-(2-iminoimidazolidin-4-yl)seryl-3-(3-hexoopyranosyl-2-iminoimidazolidin-4-yl)serylseryl]] (cyclo(G[ξPhe(4-Cl,βξ-Me)]Y(X2)[ξEnduracididine(βξ-OH,4'ξ)][X1]S); configuration not given here)", "values": [{"measurement": "MIC Enterococcus avium (GC 4558)", "setting": "[1]; Enterococcus avium (GC 4558)", "value": ">128", "unit": "µg/mL"}, {"measurement": "MIC Enterococcus faecalis (ATCC 29212)", "setting": "[1]; Enterococcus faecalis (ATCC 29212)", "value": ">128", "unit": "µg/mL"}, {"measurement": "MIC Enterococcus faecalis (GC 4553)", "setting": "[1]; Enterococcus faecalis (GC 4553)", "value": ">128", "unit": "µg/mL"}, {"measurement": "MIC Enterococcus faecalis (GC 4554)", "setting": "[1]; Enterococcus faecalis (GC 4554)", "value": ">128", "unit": "µg/mL"}, {"measurement": "MIC Enterococcus faecium (GC 2243)", "setting": "[1]; Enterococcus faecium (GC 2243)", "value": ">128", "unit": "µg/mL"}, {"measurement": "MIC Enterococcus faecium (GC 4556)", "setting": "[1]; Enterococcus faecium (GC 4556)", "value": ">128", "unit": "µg/mL"}, {"measurement": "MIC Enterococcus faecium (GC 4557)", "setting": "[1]; Enterococcus faecium (GC 4557)", "value": ">128", "unit": "µg/mL"}, {"measurement": "MIC Enterococcus faecalis (ATCC 29212)", "setting": "[1]; strain ATCC 29212", "value": ">128", "unit": "µg/mL"}, {"measurement": "MIC Enterococcus faecalis (GC 2242)", "setting": "[1]; strain GC 2242", "value": ">128", "unit": "µg/mL"}, {"measurement": "MIC Enterococcus faecium (GC 2243)", "setting": "[1]; strain GC 2243", "value": ">128", "unit": "µg/mL"}, {"measurement": "MIC Enterococcus faecalis (GC 4552)", "setting": "[1]; strain GC 4552", "value": ">128", "unit": "µg/mL"}, {"measurement": "MIC Enterococcus faecalis (GC 4553)", "setting": "[1]; strain GC 4553", "value": ">128", "unit": "µg/mL"}, {"measurement": "MIC Enterococcus faecalis (GC 4554)", "setting": "[1]; strain GC 4554", "value": ">128", "unit": "µg/mL"}, {"measurement": "MIC Enterococcus faecium (GC 4556)", "setting": "[1]; strain GC 4556", "value": ">128", "unit": "µg/mL"}, {"measurement": "MIC Enterococcus faecium (GC 4557)", "setting": "[1]; strain GC 4557", "value": ">128", "unit": "µg/mL"}, {"measurement": "MIC Enterococcus avium (GC 4558)", "setting": "[1]; strain GC 4558", "value": ">128", "unit": "µg/mL"}, {"measurement": "MIC Escherichia coli (ATCC 25922)", "setting": "[2]; Escherichia coli (ATCC 25922)", "value": ">128", "unit": "µg/mL"}, {"measurement": "MIC Escherichia coli (GC 4559)", "setting": "[2]; Escherichia coli (GC 4559)", "value": ">128", "unit": "µg/mL"}, {"measurement": "MIC Escherichia coli (GC 4560)", "setting": "[2]; Escherichia coli (GC 4560)", "value": 16, "unit": "µg/mL"}, {"measurement": "MIC Coagulase Negative Staphylococcus (GC 4547)", "setting": "[3]", "value": 64, "unit": "µg/mL"}, {"measurement": "MIC Coagulase Negative Staphylococcus (GC 4548)", "setting": "[3]", "value": 64, "unit": "µg/mL"}, {"measurement": "MIC Coagulase Negative Staphylococcus (GC 4549)", "setting": "[3]", "value": 16, "unit": "µg/mL"}, {"measurement": "MIC Coagulase Negative Staphylococcus (GC 4551)", "setting": "[3]", "value": 128, "unit": "µg/mL"}, {"measurement": "MIC Staphylococcus aureus (ATCC 29213)", "setting": "[3]", "value": 64, "unit": "µg/mL"}, {"measurement": "MIC Staphylococcus aureus (GC 1131)", "setting": "[3]", "value": 128, "unit": "µg/mL"}, {"measurement": "MIC Staphylococcus aureus (GC 4541)", "setting": "[3]", "value": 64, "unit": "µg/mL"}, {"measurement": "MIC Staphylococcus aureus (GC 4542)", "setting": "[3]", "value": ">128", "unit": "µg/mL"}, {"measurement": "MIC Staphylococcus aureus (GC 4544)", "setting": "[3]", "value": 64, "unit": "µg/mL"}, {"measurement": "MIC Staphylococcus aureus (GC 4545)", "setting": "[3]", "value": 64, "unit": "µg/mL"}, {"measurement": "MIC Staphylococcus aureus-SMITH (GC 4543)", "setting": "[3]", "value": 64, "unit": "µg/mL"}, {"measurement": "MIC Staphylococcus haemolyticus (GC 4546)", "setting": "[3]", "value": 64, "unit": "µg/mL"}, {"measurement": "MIC Staphylococcus aureus (ATCC 29213)", "setting": "[3]; strain ATCC 29213", "value": 64, "unit": "µg/mL"}, {"measurement": "MIC Staphylococcus aureus (GC 1131)", "setting": "[3]; strain GC 1131", "value": 128, "unit": "µg/mL"}, {"measurement": "MIC Staphylococcus aureus (GC 4541)", "setting": "[3]; strain GC 4541", "value": 64, "unit": "µg/mL"}, {"measurement": "MIC Staphylococcus aureus (GC 4542)", "setting": "[3]; strain GC 4542", "value": ">128", "unit": "µg/mL"}, {"measurement": "MIC Staphylococcus aureus (GC 4544)", "setting": "[3]; strain GC 4544", "value": 64, "unit": "µg/mL"}, {"measurement": "MIC Staphylococcus aureus (GC 4545)", "setting": "[3]; strain GC 4545", "value": 64, "unit": "µg/mL"}, {"measurement": "MIC Staphylococcus haemolyticus (GC 4546)", "setting": "[3]; strain GC 4546", "value": 64, "unit": "µg/mL"}, {"measurement": "MIC Coagulase Negative Staphylococcus (GC 4547)", "setting": "[3]; strain GC 4547", "value": 64, "unit": "µg/mL"}, {"measurement": "MIC Coagulase Negative Staphylococcus (GC 4548)", "setting": "[3]; strain GC 4548", "value": 64, "unit": "µg/mL"}, {"measurement": "MIC Coagulase Negative Staphylococcus (GC 4549)", "setting": "[3]; strain GC 4549", "value": 16, "unit": "µg/mL"}, {"measurement": "MIC Coagulase Negative Staphylococcus (GC 4551)", "setting": "[3]; strain GC 4551", "value": 128, "unit": "µg/mL"}, {"measurement": "MIC Staphylococcus aureus-SMITH (GC 4543)", "setting": "[3]; strain SMITH GC 4543", "value": 64, "unit": "µg/mL"}, {"measurement": "MIC Streptococcus agalactiae (GC 4564)", "setting": "[4]; strain GC 4564", "value": 32, "unit": "µg/mL"}, {"measurement": "MIC Streptococcus pyogenes (ID-3187)", "setting": "[4]; strain ID-3187", "value": 32, "unit": "µg/mL"}]}]}
